Reference: PubChem BioAssay AID256 (DTP/NCI, 2004)
Inconclusive results and toxic doses are left out. Rule for the calls: active = survival T/C of 150% or more; inactive = T/C below 125% in these data.

Tested on: CD2F1 mice, L1210 leukemia ip, survival T/C
Test: NCI In Vivo Anticancer Drug Screen. Data for tumor model L1210 Leukemia (intraperitoneal) in CD2F1 (CDF1) mice
Conditions: higher = longer survival
In short: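 Read-out first: treated-group measurement over vehicle-control measurement, expressed as a ratio. Animals bore a transplanted tumor line and were dosed with compound or vehicle.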

[1] = endpoint: mean survival time, dose: 100.0 mg/kg/injection, schedule: Q01DX009 (ip), vehicle: saline with Tween-80
[2] = endpoint: mean survival time, dose: 100.0 mg/kg/injection, schedule: Q04DX003 (ip), vehicle: saline with Tween-80
[3] = endpoint: mean survival time, dose: 200.0 mg/kg/injection, schedule: Q01DX009 (ip), vehicle: saline with Tween-80
[4] = endpoint: mean survival time, dose: 200.0 mg/kg/injection, schedule: Q04DX003 (ip), vehicle: saline with Tween-80
[5] = endpoint: mean survival time, dose: 400.0 mg/kg/injection, schedule: Q01DX009 (ip), vehicle: saline with Tween-80
[6] = endpoint: mean survival time, dose: 400.0 mg/kg/injection, schedule: Q04DX003 (ip), vehicle: saline with Tween-80
[7] = endpoint: mean survival time, dose: 100.0 mg/kg/injection, schedule: Q01DX001 (ip), vehicle: saline with Tween-80
[8] = endpoint: mean survival time, dose: 200.0 mg/kg/injection, schedule: Q01DX001 (ip), vehicle: saline with Tween-80
[9] = endpoint: mean survival time, dose: 400.0 mg/kg/injection, schedule: Q01DX001 (ip), vehicle: saline with Tween-80
[10] = endpoint: mean survival time, dose: 25.0 mg/kg/injection, schedule: Q04DX003 (ip), vehicle: saline with Tween-80
[11] = endpoint: mean survival time, dose: 50.0 mg/kg/injection, schedule: Q04DX003 (ip), vehicle: saline with Tween-80

Measured: T/C

Cn1c(=O)c2c(ncn2C)n(C)c1=O.[Cl][Pt]([Cl])[Cl]
inactive: endpoint: mean survival time, dose: 3.13 mg/kg/injection, schedule: Q04DX003 (ip), vehicle: saline 112 % of control | endpoint: mean survival time, dose: 3.13 mg/kg/injection, schedule: Q04DX003 (ip), vehicle: water 98 % of control | endpoint: mean survival time, dose: 6.25 mg/kg/injection, schedule: Q04DX003 (ip), vehicle: saline 104 % of control | endpoint: mean survival time, dose: 6.25 mg/kg/injection, schedule: Q04DX003 (ip), vehicle: water 95 % of control | endpoint: mean survival time, dose: 12.5 mg/kg/injection, schedule: Q04DX003 (ip), vehicle: saline 106 % of control | endpoint: mean survival time, dose: 12.5 mg/kg/injection, schedule: Q04DX003 (ip), vehicle: water 104 % of control | endpoint: mean survival time, dose: 25.0 mg/kg/injection, schedule: Q04DX003 (ip), vehicle: saline 102 % of control | endpoint: mean survival time, dose: 25.0 mg/kg/injection, schedule: Q04DX003 (ip), vehicle: water 102 % of control | endpoint: mean survival time, dose: 50.0 mg/kg/injection, schedule: Q04DX003 (ip), vehicle: saline 106 % of control | endpoint: mean survival time, dose: 50.0 mg/kg/injection, schedule: Q04DX003 (ip), vehicle: water 104 % of control | endpoint: mean survival time, dose: 100.0 mg/kg/injection, schedule: Q04DX003 (ip), vehicle: saline 112 % of control | endpoint: mean survival time, dose: 100.0 mg/kg/injection, schedule: Q04DX003 (ip), vehicle: water 118 % of control | endpoint: mean survival time, dose: 200.0 mg/kg/injection, schedule: Q04DX003 (ip), vehicle: saline 111 % of control

COc1ccc(C(C)=O)cc1C=O
inactive: [1] 87 % of control | [2] 97 % of control | [3] 92 % of control | [4] 104 % of control | [5] 90 % of control | [6] 102 % of control

C[S+](C)CC(=O)c1ccccc1
inactive: endpoint: mean survival time, dose: 50.0 mg/kg/injection, schedule: Q01DX009 (ip), vehicle: saline 97 % of control | endpoint: mean survival time, dose: 100.0 mg/kg/injection, schedule: Q01DX009 (ip), vehicle: saline 106 % of control | endpoint: mean survival time, dose: 200.0 mg/kg/injection, schedule: Q01DX009 (ip), vehicle: saline 107 % of control

CC(=O)[c-]1[c-][c-][c-][c-]1.[Fe+2].[c-]1[c-][c-][cH-][c-]1
inactive: endpoint: mean survival time, dose: 200.0 mg/kg/injection, schedule: Q01DX001 (ip), vehicle: saline 102 % of control | endpoint: mean survival time, dose: 400.0 mg/kg/injection, schedule: Q01DX001 (ip), vehicle: saline 100 % of control

COC1C=CC=CC=C1
inactive: endpoint: mean survival time, dose: 15.0 mg/kg/injection, schedule: Q04DX003 (ip), vehicle: saline sonified 100 % of control | endpoint: mean survival time, dose: 30.0 mg/kg/injection, schedule: Q04DX003 (ip), vehicle: saline sonified 94 % of control | endpoint: mean survival time, dose: 60.0 mg/kg/injection, schedule: Q04DX003 (ip), vehicle: saline sonified 100 % of control

CC(=O)c1ccc(N=NNc2ccc(C(C)=O)cc2)cc1
inactive: [7] 103 % of control | [1] 96 % of control | [8] 95 % of control | [3] 95 % of control | [9] 95 % of control

CCCC1CC[N-]CC1.CCCC1CC[N-]CC1.[Cl][Cu][Cl]
inactive: endpoint: mean survival time, dose: 3.13 mg/kg/injection, schedule: Q01DX009 (ip), vehicle: saline 96 % of control | endpoint: mean survival time, dose: 12.5 mg/kg/injection, schedule: Q01DX009 (ip), vehicle: saline 94 % of control

Clc1ccc(OCC2CO2)cc1 (stereo unspecified)
inactive: [10] 101 % of control | [11] 101 % of control | [2] 98 % of control

C[N+]([O-])(C/C=C/c1ccccc1)c1ccccc1 (stereo unspecified)
inactive: endpoint: mean survival time, dose: 75.0 mg/kg/injection, schedule: Q01DX001 (ip), vehicle: saline 101 % of control | endpoint: mean survival time, dose: 150.0 mg/kg/injection, schedule: Q01DX001 (ip), vehicle: saline 97 % of control | endpoint: mean survival time, dose: 300.0 mg/kg/injection, schedule: Q01DX001 (ip), vehicle: saline 98 % of control

CCCCCCCCCCCC(O)CCCCC (stereo unspecified)
inactive: endpoint: mean survival time, dose: 100.0 mg/kg/injection, schedule: Q01DX009 (ip), vehicle: other 95 % of control | endpoint: mean survival time, dose: 100.0 mg/kg/injection, schedule: Q04DX003 (ip), vehicle: other 91 % of control | endpoint: mean survival time, dose: 200.0 mg/kg/injection, schedule: Q01DX009 (ip), vehicle: other 91 % of control | endpoint: mean survival time, dose: 200.0 mg/kg/injection, schedule: Q04DX003 (ip), vehicle: other 103 % of control | endpoint: mean survival time, dose: 400.0 mg/kg/injection, schedule: Q01DX009 (ip), vehicle: other 98 % of control | endpoint: mean survival time, dose: 400.0 mg/kg/injection, schedule: Q04DX003 (ip), vehicle: other 96 % of control

CCSc1nc(N)c2ncn(C3OC(CO)C(O)C3O)c2n1 (stereo unspecified)
inactive: endpoint: median survival time, dose: 10.0 mg/kg/injection, schedule: Q01DX005 (ip), vehicle: saline with Tween-80 103 % of control | endpoint: median survival time, dose: 20.0 mg/kg/injection, schedule: Q01DX005 (ip), vehicle: saline with Tween-80 100 % of control | endpoint: median survival time, dose: 40.0 mg/kg/injection, schedule: Q01DX005 (ip), vehicle: saline with Tween-80 91 % of control | endpoint: median survival time, dose: 80.0 mg/kg/injection, schedule: Q01DX005 (ip), vehicle: saline with Tween-80 88 % of control | endpoint: median survival time, dose: 160.0 mg/kg/injection, schedule: Q01DX005 (ip), vehicle: saline with Tween-80 93 % of control

CCN(CC)C(=S)S[Se](SC(=S)N(CC)CC)(SC(=S)N(CC)CC)SC(=S)N(CC)CC
inactive: endpoint: median survival time, dose: 3.12 mg/kg/injection, schedule: Q01DX009 (ip), vehicle: Klucel (hydroxypropylcellulose) (HPC) 103 % of control | endpoint: median survival time, dose: 6.25 mg/kg/injection, schedule: Q01DX009 (ip), vehicle: Klucel (hydroxypropylcellulose) (HPC) 101 % of control | endpoint: median survival time, dose: 12.5 mg/kg/injection, schedule: Q01DX009 (ip), vehicle: Klucel (hydroxypropylcellulose) (HPC) 95 % of control | endpoint: median survival time, dose: 25.0 mg/kg/injection, schedule: Q01DX009 (ip), vehicle: Klucel (hydroxypropylcellulose) (HPC) 93 % of control | endpoint: median survival time, dose: 50.0 mg/kg/injection, schedule: Q01DX009 (ip), vehicle: Klucel (hydroxypropylcellulose) (HPC) 93 % of control

F[Si](c1ccccc1)(c1cccc2ccccc12)c1cccc2ccccc12
inactive: [1] 96 % of control | [3] 100 % of control | [5] 95 % of control

Brc1ccc([I+]c2ccc(Br)cc2)cc1
inactive: endpoint: mean survival time, dose: 12.5 mg/kg/injection, schedule: Q04DX003 (ip), vehicle: saline with Tween-80 105 % of control | [10] 95 % of control | [11] 101 % of control | [6] 94 % of control

COC(=O)c1cncn1C1c2ccccc2-c2ccccc21
inactive: endpoint: mean survival time, dose: 50.0 mg/kg/injection, schedule: Q04DX002 (ip), vehicle: saline with Tween-80 103 % of control | [7] 86 % of control | endpoint: mean survival time, dose: 100.0 mg/kg/injection, schedule: Q04DX002 (ip), vehicle: saline with Tween-80 98 % of control | [8] 91 % of control | endpoint: mean survival time, dose: 200.0 mg/kg/injection, schedule: Q04DX002 (ip), vehicle: saline with Tween-80 95 % of control | [9] 91 % of control

CC(/C=N/N=C(N)N)=N\N=C(N)N
inactive: endpoint: mean survival time, dose: 12.5 mg/kg/injection, schedule: Q04DX003 (ip), vehicle: Klucel (hydroxypropylcellulose) (HPC) 97 % of control | endpoint: mean survival time, dose: 25.0 mg/kg/injection, schedule: Q04DX003 (ip), vehicle: Klucel (hydroxypropylcellulose) (HPC) 98 % of control | endpoint: mean survival time, dose: 50.0 mg/kg/injection, schedule: Q04DX003 (ip), vehicle: Klucel (hydroxypropylcellulose) (HPC) 110 % of control | endpoint: mean survival time, dose: 53.6 mg/kg/injection, schedule: Q03HX024 (ip), vehicle: clinical formulation 92 % of control | endpoint: median survival time, dose: 120.0 mg/kg/injection, schedule: Q01DX009 (ip), vehicle: saline 87 % of control

N#C/C(=C\c1ccc(-c2ccccc2)cc1)c1ccccc1
inactive: [4] 86 % of control | [6] 95 % of control
